# Tests used:
# [1] = test system: K562; test: Induction of apoptosis in human K562 cells assessed as necrotic cells at 1 uM incubated for 48 hrs by Annexin V-FITC/PI staining based flow cytometry analysis (Rvb= 0.09%); type: functional
# [2] = test system: K562; test: Antiproliferative activity against human K562 cells assessed as inhibition of cell growth incubated for 48 hrs by MTT assay; type: functional, cell-based; details: K562, 48 h
# [3] = test system: BaF3; test: Antiproliferative activity against mouse BaF3 cells expressing Bcr-Abl T315I mutant assessed as inhibition of cell growth at 30 uM incubated for 72 hrs by CellTiter-Glo luminescent assay; type: functional
# [4] = test system: K562/Adr; test: Antiproliferative activity against human Adriamycin-resistant K562/Adr cells assessed as inhibition of cell growth incubated for 48 hrs by MTT assay; type: functional, cell-based
# [5] = test system: K-562R; test: Antiproliferative activity against human K-562R cells expressing Bcr-Abl T315I mutant assessed as inhibition of cell growth incubated for 48 hrs by MTT assay; type: functional, cell-based
# [6] = test system: EA.hy 926; test: Cytotoxicity against human EA.hy 926 cells assessed as inhibition of cell growth upto 100 uM incubated for 48 hrs by MTT assay; type: toxicity, cell-based; details: ea.hy 926, 48 h
# [7] = test system: BaF3; test: Antiproliferative activity against mouse BaF3 cells expressing wild type Bcr-Abl assessed as inhibition of cell growth incubated for 72 hrs by CellTiter-Glo luminescent assay; type: functional, cell-based; details: BaF3, 72 h
# [8] = test system: BaF3; test: Antiproliferative activity against mouse BaF3 cells expressing Bcr-Abl T315I mutant assessed as inhibition of cell growth incubated for 72 hrs by CellTiter-Glo luminescent assay; type: functional, cell-based; details: BaF3, 72 h
# [9] = test system: BaF3; test: Antiproliferative activity against mouse BaF3 cells assessed as inhibition of cell growth incubated for 72 hrs by CellTiter-Glo luminescent assay; type: functional, cell-based; details: BaF3, 72 h
# [10] = molecular target: Platelet-derived growth factor receptor alpha (Homo sapiens) (UniProt P16234); test: Inhibition of recombinant human PDGFRalpha at 10 uM for 10 mins followed by substrate addition in presence of ATP and measured after 60 mins by HTRF assay; details: time 70.0 min
# Chain of Platelet-derived growth factor receptor alpha (Homo sapiens) (P16234 whole entry): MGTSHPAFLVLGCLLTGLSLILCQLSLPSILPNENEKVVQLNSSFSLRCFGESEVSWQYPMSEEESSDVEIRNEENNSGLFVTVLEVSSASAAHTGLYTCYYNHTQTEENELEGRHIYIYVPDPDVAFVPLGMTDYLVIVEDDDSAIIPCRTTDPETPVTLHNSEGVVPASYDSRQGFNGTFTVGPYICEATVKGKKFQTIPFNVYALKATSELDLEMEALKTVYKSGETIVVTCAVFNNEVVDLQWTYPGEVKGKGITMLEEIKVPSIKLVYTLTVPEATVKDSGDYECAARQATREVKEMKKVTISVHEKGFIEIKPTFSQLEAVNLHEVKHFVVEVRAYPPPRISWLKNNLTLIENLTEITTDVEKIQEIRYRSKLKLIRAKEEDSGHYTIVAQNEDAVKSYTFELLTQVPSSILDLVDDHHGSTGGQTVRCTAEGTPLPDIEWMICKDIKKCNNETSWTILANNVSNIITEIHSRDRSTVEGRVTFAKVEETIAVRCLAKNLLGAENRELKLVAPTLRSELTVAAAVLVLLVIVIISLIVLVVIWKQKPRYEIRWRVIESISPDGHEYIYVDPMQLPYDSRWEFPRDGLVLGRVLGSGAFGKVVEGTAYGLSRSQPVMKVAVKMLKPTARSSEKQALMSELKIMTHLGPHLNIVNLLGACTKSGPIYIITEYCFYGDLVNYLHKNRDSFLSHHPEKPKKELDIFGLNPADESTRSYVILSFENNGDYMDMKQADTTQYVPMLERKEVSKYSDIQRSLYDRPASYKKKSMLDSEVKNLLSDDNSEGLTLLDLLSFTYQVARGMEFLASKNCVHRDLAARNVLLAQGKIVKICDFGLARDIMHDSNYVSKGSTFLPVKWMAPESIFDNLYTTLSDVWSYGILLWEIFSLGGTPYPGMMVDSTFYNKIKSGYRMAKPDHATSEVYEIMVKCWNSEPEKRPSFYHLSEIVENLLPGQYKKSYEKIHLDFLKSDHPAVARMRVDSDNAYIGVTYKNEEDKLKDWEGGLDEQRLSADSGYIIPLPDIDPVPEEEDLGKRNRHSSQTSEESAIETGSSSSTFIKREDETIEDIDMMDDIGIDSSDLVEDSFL
# [11] = molecular target: Platelet-derived growth factor receptor alpha (Homo sapiens) (UniProt P16234); test: Inhibition of recombinant human PDGFRalpha at 10 uM for 10 mins followed by substrate addition in presence of ATP and measured after 100 mins by ADP-Glo kinase assay; details: time 110.0 min
# [12] = molecular target: Dual specificity tyrosine-phosphorylation-regulated kinase 1B (Homo sapiens) (UniProt Q9Y463); test: Inhibition of recombinant human DYRK1B at 10 uM for 10 mins followed by substrate addition in presence of ATP and measured after 100 mins by ADP-Glo kinase assay; details: time 110.0 min
# Chain of Dual specificity tyrosine-phosphorylation-regulated kinase 1B (Homo sapiens) (Q9Y463 whole entry, looked up): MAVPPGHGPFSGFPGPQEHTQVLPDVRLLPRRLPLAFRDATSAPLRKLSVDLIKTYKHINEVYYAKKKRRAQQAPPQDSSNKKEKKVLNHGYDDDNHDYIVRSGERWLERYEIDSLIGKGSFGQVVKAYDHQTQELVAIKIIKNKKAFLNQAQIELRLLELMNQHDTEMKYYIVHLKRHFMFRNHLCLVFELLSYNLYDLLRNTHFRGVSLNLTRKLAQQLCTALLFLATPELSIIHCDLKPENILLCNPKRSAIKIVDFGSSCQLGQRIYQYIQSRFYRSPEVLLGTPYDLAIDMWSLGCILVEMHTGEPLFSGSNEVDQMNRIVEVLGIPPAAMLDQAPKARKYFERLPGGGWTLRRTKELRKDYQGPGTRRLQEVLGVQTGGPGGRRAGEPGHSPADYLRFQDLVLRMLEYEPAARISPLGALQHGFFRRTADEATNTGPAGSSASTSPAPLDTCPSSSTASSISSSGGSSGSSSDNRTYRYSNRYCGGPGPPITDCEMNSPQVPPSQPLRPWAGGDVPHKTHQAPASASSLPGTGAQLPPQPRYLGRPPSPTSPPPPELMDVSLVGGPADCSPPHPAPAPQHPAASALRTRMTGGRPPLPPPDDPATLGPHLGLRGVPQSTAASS
# [13] = molecular target: Tyrosine-protein kinase receptor UFO (Homo sapiens) (UniProt P30530); test: Inhibition of recombinant human AXL at 10 uM for 10 mins followed by substrate addition in presence of ATP and measured after 60 mins by HTRF assay; details: time 70.0 min
# [14] = molecular target: BDNF/NT-3 growth factors receptor (Homo sapiens) (UniProt Q16620); test: Inhibition of recombinant human TRKB at 10 uM for 10 mins followed by substrate addition in presence of ATP and measured after 60 mins by HTRF assay; details: time 70.0 min
# Chain of BDNF/NT-3 growth factors receptor (Homo sapiens) (Q16620 32-822 limits assumed): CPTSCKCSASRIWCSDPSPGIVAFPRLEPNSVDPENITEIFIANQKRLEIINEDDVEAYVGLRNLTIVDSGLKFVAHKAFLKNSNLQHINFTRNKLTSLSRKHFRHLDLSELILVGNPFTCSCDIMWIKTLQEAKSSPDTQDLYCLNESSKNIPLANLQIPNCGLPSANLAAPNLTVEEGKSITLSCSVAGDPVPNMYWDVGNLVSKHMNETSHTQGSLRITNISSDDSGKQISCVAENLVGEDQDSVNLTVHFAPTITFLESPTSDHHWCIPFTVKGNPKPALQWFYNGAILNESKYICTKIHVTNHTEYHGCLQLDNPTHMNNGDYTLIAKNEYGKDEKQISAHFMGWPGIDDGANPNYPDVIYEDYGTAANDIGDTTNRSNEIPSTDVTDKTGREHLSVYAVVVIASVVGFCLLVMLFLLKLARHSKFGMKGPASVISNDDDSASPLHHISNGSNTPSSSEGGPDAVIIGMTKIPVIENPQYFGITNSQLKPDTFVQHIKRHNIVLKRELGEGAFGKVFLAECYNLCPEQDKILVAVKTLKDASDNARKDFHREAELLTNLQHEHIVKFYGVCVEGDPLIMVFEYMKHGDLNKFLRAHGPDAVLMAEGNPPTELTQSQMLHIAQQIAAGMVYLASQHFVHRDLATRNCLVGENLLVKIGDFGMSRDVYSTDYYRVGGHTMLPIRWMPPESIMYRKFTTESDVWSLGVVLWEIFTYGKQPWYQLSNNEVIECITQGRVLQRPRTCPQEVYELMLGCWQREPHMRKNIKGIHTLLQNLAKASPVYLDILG
# [15] = molecular target: BDNF/NT-3 growth factors receptor (Homo sapiens) (UniProt Q16620); test: Inhibition of recombinant human TRKB at 10 uM for 10 mins followed by substrate addition in presence of ATP and measured after 100 mins by ADP-Glo kinase assay; details: time 110.0 min
# [16] = molecular target: Vascular endothelial growth factor receptor 2 (Homo sapiens) (UniProt P35968); test: Inhibition of recombinant human KDR at 10 uM for 10 mins followed by substrate addition in presence of ATP and measured after 60 mins by HTRF assay; details: time 70.0 min
# Chain of Vascular endothelial growth factor receptor 2 (Homo sapiens) (P35968 whole entry): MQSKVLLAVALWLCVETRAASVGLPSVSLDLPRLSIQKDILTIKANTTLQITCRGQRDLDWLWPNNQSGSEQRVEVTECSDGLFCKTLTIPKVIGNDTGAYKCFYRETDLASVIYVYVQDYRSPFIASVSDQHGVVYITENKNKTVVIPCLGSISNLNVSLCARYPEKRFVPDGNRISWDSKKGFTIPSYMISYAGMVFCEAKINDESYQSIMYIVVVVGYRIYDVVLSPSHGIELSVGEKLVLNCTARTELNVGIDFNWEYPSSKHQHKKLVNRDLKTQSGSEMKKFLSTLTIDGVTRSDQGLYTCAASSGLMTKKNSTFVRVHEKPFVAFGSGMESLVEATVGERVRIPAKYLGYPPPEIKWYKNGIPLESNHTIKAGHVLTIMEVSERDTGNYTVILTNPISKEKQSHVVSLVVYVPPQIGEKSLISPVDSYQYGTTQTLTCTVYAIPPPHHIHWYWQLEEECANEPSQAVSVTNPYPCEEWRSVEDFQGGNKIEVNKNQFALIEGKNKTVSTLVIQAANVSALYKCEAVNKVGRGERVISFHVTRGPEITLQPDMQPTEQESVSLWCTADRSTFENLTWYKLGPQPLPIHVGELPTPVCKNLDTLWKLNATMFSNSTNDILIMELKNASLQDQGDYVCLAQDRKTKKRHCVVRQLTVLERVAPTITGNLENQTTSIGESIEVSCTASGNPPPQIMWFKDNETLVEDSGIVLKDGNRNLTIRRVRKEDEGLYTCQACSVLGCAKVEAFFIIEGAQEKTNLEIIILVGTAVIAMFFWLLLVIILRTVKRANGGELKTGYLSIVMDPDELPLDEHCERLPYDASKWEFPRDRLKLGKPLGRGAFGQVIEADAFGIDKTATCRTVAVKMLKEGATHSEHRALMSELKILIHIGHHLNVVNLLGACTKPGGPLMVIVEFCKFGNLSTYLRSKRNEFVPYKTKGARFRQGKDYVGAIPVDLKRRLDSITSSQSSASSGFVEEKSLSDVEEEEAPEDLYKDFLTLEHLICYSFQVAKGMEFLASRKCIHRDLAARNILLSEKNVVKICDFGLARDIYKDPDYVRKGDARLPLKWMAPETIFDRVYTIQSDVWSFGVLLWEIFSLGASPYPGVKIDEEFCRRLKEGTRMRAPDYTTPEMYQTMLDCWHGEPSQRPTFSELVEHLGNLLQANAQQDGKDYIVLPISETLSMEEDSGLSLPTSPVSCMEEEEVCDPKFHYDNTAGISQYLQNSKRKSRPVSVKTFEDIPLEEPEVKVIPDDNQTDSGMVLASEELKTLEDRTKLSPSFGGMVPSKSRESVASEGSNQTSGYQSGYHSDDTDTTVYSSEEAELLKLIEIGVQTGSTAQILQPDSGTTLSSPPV
# [17] = molecular target: Dual specificity protein kinase CLK1 (Homo sapiens) (UniProt P49759); test: Inhibition of recombinant human CLK1 at 10 uM for 10 mins followed by substrate addition in presence of ATP and measured after 60 mins by HTRF assay; details: time 70.0 min
# Chain of Dual specificity protein kinase CLK1 (Homo sapiens) (P49759 whole entry, looked up): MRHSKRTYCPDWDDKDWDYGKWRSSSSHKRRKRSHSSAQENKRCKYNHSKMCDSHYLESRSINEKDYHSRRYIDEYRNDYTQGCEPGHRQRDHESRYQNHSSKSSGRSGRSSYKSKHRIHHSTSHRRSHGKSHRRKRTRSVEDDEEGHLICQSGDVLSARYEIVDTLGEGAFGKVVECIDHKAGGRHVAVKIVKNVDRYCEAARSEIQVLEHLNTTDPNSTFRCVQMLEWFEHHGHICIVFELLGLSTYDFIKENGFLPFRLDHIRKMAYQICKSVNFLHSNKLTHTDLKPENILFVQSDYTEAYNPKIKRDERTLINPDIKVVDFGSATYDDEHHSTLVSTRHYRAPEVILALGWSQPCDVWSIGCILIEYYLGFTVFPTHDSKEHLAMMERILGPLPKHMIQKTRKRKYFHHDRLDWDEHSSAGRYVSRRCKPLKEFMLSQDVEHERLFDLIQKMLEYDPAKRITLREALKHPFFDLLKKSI
# [18] = test system: K562; test: Induction of apoptosis in human K562 cells assessed as necrotic cells at 5 uM incubated for 48 hrs by Annexin V-FITC/PI staining based flow cytometry analysis (Rvb= 0.09%); type: functional
# [19] = test system: K562; test: Induction of apoptosis in human K562 cells assessed as early apoptotic cells at 1 uM incubated for 48 hrs by Annexin V-FITC/PI staining based flow cytometry analysis (Rvb= 4.35%); type: functional
# [20] = test system: K562; test: Induction of apoptosis in human K562 cells assessed as early apoptotic cells at 5 uM incubated for 48 hrs by Annexin V-FITC/PI staining based flow cytometry analysis (Rvb= 4.35%); type: functional
# [21] = test system: K562; test: Induction of apoptosis in human K562 cells assessed as late apoptotic cells at 10 uM incubated for 48 hrs by Annexin V-FITC/PI staining based flow cytometry analysis (Rvb= 14.66%); type: functional
# [22] = test system: K562; test: Induction of apoptosis in human K562 cells assessed as viable cells at 10 uM incubated for 48 hrs by Annexin V-FITC/PI staining based flow cytometry analysis (Rvb=80.89%); type: functional; details: read-out: Activity
# [23] = test system: K562; test: Induction of cell cycle arrest in human K562 cells assessed as accumulation at G2/M phase at 1 to 10 uM incubated for 48 hrs by PI staining based flow cytometry (Rvb= 12.23%); type: functional; details: dose 1-10 µM
# [24] = molecular target: Bcr/Abl fusion protein (Homo sapiens) (UniProt P00519+P11274); test: Inhibition of Bcr-Abl phosphorylation at Tyr245 residue in human K562 cells expressing wild type Bcr-Abl at 0.1 to 15 uM measured after 48 hrs by Western blot analysis; type: cell-based; details: dose 0.1-15 µM, DDE = dose-dependent effect
smiles,measurement,setting,value
O=C(Nc1nc2ccc(-c3cn([C@@H]4CN[C@H](C(=O)Nc5ccc(Cl)cc5Cl)C4)nn3)nc2s1)C1CC1,Activity,[1],0.06%
same,IC50,[2],740 nM
same,inhibition at 30 µM,[3],87.6%
same,IC50,[4],2440 nM
same,IC50,[5],1910 nM
same,Activity,[6],Non-Toxic
same,IC50,[7],130 nM
same,IC50,[8],672 nM
same,IC50,[9],> 20 µM
same,inhibition,[10],87.9%
same,inhibition,[11],87.9%
same,inhibition,[12],68.4%
same,inhibition,[13],56.4%
same,inhibition,[14],54.3%
same,inhibition,[15],54.3%
same,inhibition,[16],47.7%
same,inhibition,[17],44.2%
same,Activity,[18],0.03%
same,Activity,[19],3.59%
same,Activity,[20],4.85%
same,Activity,[21],43.12%
same,viability at 10 µM,[22],49.7%
same,Activity,[23],37.12%
same,inhibition,[24],Dde

# From ChEMBL document CHEMBL5113400, “Design, synthesis, and biological evaluation of trizole-based heteroaromatic derivatives as Bcr-Abl kinase inhibitors” (Eur J Med Chem, 2022)
